From patent publication US9387211B2 (Cedars-Sinai Medical Center, priority 2010, dated 2016) come the findings set out here.

Assay [1] has as its system non-tumor pituitary cell cultures.
The subject of assay [2] is AtT20 cells stably expressing empty vector (V). Description: BrdU incorporation by flow cytometry. Particulars: 10 μM gefitinib, 24 hours. For orientation: Dividing cells build labelled thymidine or BrdU into new DNA.
Assay [3] has the same test system. The experiment in a line: Pomc promoter luciferase assay. Particulars: highest gefitinib dose (10 μM); control cells.
Assay [4] has the same test system. Description: Cell proliferation assay (cell counting).
Experimental: EGFR WT cells were plated at a density of 2×10^4 per well in 12-well plates with growth medium. Cells were counted by hemocytometer at the indicated times.

Regarding `COc1cc2ncnc(Nc3ccc(F)c(Cl)c3)c2cc1OCCCN1CCOCC1` [gefitinib], the “pomc mRNA expression levels” value in assay [1] (non-tumor pituitary cell cultures (FIG. 6)) is on record as “unaltered”. The normal pituitary function entry in assay [1] (normal pituitary (FIG. 5F)) is recorded as “does not affect”. For the same compound, the “reduction of BrdU incorporation” value in assay [2] is listed as about 58%. Further, in assay [3], the “suppression of pomc promoter activity” value is about 23%. Besides, the “decrease of cell proliferation” value in assay [4] (gefitinib 0.1-10 μM, 24 hours, V) is given as “not V cell proliferation”. In addition, in assay [4] (high dose (10 μM) gefitinib, V cells), the cell number result is given as “not altered”.
